Data set [1] addresses T1, 5-hydroxytryptamine receptor 1B (Homo sapiens, UniProt P28222). Put plainly: Inhibitory activity against human recombinant 5HT1B receptor co-expressed with G-protein chimera Gqo5 in HEK293 cells by FLIPR. Type of data set: functional, cell-based.
A short description of data set [2]: Oral bioavailability in rat at 10 mg/kg, po. Type of data set: ADME, organism-based. The note with it: in vivo.
The species named for data set [3] is Rattus norvegicus. The experiment in a line: Electrically stimulated [3H]5-HT release from rat brain cortical slices at 0.1 uM. It counts as functional, tissue-based.
Data set [4] concerns the target T2, 5-hydroxytryptamine receptor 1A (Homo sapiens) (UniProt P08908).
T2 sequence (whole entry): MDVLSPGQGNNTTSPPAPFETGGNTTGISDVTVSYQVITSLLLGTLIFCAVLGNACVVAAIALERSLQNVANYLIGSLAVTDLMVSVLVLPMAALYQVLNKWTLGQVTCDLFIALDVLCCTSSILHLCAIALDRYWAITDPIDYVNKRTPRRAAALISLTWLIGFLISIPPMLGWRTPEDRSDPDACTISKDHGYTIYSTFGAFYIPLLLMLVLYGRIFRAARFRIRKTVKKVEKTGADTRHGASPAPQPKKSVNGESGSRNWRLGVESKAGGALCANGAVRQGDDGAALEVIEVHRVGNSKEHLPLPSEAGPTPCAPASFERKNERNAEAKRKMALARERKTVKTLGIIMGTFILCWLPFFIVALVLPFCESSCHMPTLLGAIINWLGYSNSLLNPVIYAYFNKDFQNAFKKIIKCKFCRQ
The experiment in a line: Intrinsic activity for 5HT1A receptor in [35S]GTP-gamma-S assay. Type of data set: functional. For orientation: Binding of GTPγS marks nucleotide exchange on a G protein.

Data set [5] addresses 5-hydroxytryptamine receptor 2A (Homo sapiens, UniProt P28223). Put plainly: Inhibitory activity against 5HT2A receptor.
Data set [6] addresses T3, 5-hydroxytryptamine receptor 2C (Homo sapiens, UniProt P28335).
T3 sequence (P28335 whole entry): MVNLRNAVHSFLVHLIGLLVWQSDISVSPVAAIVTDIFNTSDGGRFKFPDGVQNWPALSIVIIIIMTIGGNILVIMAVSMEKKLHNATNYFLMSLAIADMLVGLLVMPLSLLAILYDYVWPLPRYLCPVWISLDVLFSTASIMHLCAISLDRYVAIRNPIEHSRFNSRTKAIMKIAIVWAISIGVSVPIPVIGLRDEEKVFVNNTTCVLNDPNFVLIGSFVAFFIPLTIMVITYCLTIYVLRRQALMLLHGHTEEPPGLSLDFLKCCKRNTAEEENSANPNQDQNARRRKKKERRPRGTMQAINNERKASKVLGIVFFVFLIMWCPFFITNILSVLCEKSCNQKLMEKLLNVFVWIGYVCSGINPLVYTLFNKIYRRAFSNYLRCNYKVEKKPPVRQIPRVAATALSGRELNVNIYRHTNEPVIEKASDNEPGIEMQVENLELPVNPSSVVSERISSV
The experiment in a line: Inhibitory activity against 5HT2C receptor.

Data set [7] has as its target 5-hydroxytryptamine receptor 5A (Homo sapiens, UniProt P47898). The experiment in a line: Inhibitory activity against 5HT5A receptor.
The target of data set [8] is 5-hydroxytryptamine receptor 7 (Homo sapiens, UniProt P34969). Put plainly: Inhibitory activity against 5HT7 receptor.
Another data set concerns the target D(3) dopamine receptor (Homo sapiens, UniProt P35462). The experiment in a line: Inhibitory activity against dopamine D3 receptor.
The species named for data set [9] is Rattus norvegicus. The experiment in a line: Electrically stimulated [3H]5-HT release from rat brain cortical slices at 1 uM. It counts as functional, tissue-based.
The next data set deals with Mus musculus. The experiment in a line: In vivo mouse forced swim test at 30 mg/kg, ip. It counts as functional, organism-based. Also noted: dose 30 mg/kg.
Data set [10] concerns the target T2, 5-hydroxytryptamine receptor 1A (Homo sapiens). Put plainly: Functional activity in [35S]GTP-gamma-S assay for 5HT1A receptor. The note with it: filed as antagonist.
For data set [11], the target named is T1, 5-hydroxytryptamine receptor 1B. The experiment in a line: Functional activity in FLIPR assay for 5HT1B receptor. The note with it: filed as antagonist.
The target of data set [12] is Sodium-dependent noradrenaline transporter (Homo sapiens) (UniProt P23975). Put plainly: Inhibitory activity against NET upto 10 uM.

Each structure is given as a SMILES string. Calls of active or inactive are those of the source. The calls are words filed in the database; no cut-off is given here.

T1 sequence (P28222 whole entry): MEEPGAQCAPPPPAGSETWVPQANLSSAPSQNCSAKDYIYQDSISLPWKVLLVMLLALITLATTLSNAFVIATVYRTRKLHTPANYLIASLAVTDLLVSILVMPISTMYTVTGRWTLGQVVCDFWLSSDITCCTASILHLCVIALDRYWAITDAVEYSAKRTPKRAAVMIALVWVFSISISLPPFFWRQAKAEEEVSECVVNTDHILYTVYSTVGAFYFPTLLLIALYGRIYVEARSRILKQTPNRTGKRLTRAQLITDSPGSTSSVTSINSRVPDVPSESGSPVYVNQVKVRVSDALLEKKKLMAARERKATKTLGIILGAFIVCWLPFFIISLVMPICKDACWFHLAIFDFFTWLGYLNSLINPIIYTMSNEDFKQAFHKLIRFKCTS
Chain of 5-hydroxytryptamine receptor 5A (P47898 whole entry): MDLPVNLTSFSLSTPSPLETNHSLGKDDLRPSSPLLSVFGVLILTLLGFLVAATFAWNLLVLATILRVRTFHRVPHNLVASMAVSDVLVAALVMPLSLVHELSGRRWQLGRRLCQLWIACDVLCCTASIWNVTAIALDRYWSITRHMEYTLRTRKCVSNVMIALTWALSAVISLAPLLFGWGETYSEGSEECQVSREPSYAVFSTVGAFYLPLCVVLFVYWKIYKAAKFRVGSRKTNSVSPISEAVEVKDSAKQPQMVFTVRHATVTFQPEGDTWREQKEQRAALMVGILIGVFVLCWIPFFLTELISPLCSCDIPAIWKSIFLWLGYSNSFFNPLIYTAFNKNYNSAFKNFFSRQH
Chain of D(3) dopamine receptor (P35462 whole entry): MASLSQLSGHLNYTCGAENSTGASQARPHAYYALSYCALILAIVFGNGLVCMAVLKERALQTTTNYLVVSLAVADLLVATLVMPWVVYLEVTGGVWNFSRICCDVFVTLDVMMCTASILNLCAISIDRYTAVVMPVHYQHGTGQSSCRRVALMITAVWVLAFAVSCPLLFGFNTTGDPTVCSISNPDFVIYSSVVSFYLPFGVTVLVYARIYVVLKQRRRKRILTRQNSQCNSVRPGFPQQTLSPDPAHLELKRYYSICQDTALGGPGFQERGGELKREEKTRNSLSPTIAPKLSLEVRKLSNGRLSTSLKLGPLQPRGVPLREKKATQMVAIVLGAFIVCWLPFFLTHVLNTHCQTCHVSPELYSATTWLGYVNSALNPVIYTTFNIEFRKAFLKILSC
Chain of 5-hydroxytryptamine receptor 7 (P34969 whole entry): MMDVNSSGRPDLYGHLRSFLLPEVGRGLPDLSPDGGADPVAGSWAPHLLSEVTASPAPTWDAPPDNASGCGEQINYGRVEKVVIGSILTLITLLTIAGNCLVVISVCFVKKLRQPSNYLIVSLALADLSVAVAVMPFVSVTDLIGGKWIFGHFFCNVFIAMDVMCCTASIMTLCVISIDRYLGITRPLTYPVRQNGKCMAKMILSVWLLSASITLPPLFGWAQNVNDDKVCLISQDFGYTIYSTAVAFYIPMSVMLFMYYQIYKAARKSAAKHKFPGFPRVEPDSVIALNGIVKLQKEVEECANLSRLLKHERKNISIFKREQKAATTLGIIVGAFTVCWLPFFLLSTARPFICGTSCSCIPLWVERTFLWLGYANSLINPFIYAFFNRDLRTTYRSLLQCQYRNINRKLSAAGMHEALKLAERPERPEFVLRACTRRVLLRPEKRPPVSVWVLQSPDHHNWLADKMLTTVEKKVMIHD
Chain of 5-hydroxytryptamine receptor 2A (P28223 whole entry): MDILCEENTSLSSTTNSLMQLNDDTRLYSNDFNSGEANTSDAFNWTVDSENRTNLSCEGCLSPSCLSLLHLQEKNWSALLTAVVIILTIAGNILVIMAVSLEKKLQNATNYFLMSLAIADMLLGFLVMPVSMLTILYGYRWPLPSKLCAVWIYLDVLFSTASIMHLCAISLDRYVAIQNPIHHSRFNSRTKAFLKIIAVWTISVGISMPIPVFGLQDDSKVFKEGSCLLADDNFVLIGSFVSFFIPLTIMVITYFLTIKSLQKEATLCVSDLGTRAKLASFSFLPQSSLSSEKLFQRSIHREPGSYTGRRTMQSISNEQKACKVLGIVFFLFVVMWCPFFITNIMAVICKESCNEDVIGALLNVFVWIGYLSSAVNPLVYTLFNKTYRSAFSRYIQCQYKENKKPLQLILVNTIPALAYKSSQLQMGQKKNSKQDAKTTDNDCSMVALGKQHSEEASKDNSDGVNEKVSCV
Chain of Sodium-dependent noradrenaline transporter (Homo sapiens) (P23975 whole entry): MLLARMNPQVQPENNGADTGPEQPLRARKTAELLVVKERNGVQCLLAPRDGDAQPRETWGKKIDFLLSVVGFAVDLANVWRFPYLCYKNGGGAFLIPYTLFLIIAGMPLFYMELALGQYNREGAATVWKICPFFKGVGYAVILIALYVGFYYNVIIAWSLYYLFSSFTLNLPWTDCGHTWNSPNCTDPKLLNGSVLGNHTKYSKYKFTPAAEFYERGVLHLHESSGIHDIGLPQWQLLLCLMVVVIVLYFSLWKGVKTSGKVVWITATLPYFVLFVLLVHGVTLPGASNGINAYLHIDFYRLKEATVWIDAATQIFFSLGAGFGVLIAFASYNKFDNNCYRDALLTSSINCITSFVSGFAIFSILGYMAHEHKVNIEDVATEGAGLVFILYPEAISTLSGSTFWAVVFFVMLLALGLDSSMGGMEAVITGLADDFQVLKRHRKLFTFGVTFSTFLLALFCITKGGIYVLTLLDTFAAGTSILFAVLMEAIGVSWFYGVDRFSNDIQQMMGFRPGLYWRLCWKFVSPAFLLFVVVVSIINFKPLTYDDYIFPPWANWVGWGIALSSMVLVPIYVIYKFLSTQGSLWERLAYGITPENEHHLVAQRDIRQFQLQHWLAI

What is called IC50 is the concentration at which inhibition is half-maximal. The Ki is a dissociation constant, usually derived from enzyme kinetics or from competition with a known ligand. The bioavailability is the share of a dose that reaches the circulation, judged against a reference dose that is usually intravenous. A high value points to good availability. By Emax is commonly meant the size of the effect at its maximum, as opposed to the concentration needed. `CN1CCc2c(sc3ncn(CCN4CCN(c5cncc6ccccc56)CC4)c(=O)c23)C1`: in [1], the half-maximal inhibitory concentration (IC50) was found to be 35 nM. In addition, the Ki was 2.5 nM in data set [1]; 180 nM in data set [5]; more than 10000 nM in [6]; more than 10000 nM in data set [7]; 520 nM in data set [8]; 1.18 nM on D(3) dopamine receptor. Further, the bioavailability in [2] turned out to be 11%. The Activity entry is “Dose-dependent effect” in the data set filed under Rattus norvegicus [3], “Dose-dependent effect” in the data set filed under Rattus norvegicus [9], “Antagonist” in [10] and “Antagonist” in [11]. Also, the Emax in data set [4] was found to be 4%. Besides, the outcome (with Mus musculus; in data set [12]) was inactive.

The record behind these values is ChEMBL document CHEMBL1141234, “Synthesis and SAR of highly potent dual 5-HT1A and 5-HT1B antagonists as potential antidepressant drugs” (Bioorg Med Chem Lett, 2005).
